Our source for the Surface tension values is patent publication US20080149878A1, “Fluorosurfactants” (priority 2005, published 2008).

The data set can be described thus: Determination of the surface tension (Krüss tensiometer K12, ring). It is filed as physicochemical. Particulars: 20° C. The text has this:
[table] Further details on the method can be obtained from the publication by the European Commission Classification, Packaging and Labelling of Dangerous Substances in the European Union, Part II—Test Methods, Annex V—Methods for the Determination of Physico-Chemical Properties, Toxicity and Ecotoxicity, Part A, Surface Tension (A.5), January 1997, pages 51-57, and from the OECD Guideline for the Testing of Chemicals, Section 1, Physical-Chemical Properties, Method 115, pages 1-7, adopted: 27, July 95, the contents of which in this respect expressly belong to the disclosure content of the present application.

For `CCCCCCCCCCS(=O)(=O)[O-].[Na+]` [Decane-sulfonic acid Na salt, sodium decanesulfonate], the Surface tension worked out at 66.13 mN/m (1.0020 g/l (4.101E−03 mol/l) in deionised water), 57.70 mN/m (2.0015 g/l (8.192E−03 mol/l) in deionised water) and 52.61 mN/m (3.0010 g/l (1.228E−02 mol/l) in deionised water).
Consider `O=S(=O)(O)CCCCCCCCCCOC(F)(F)F` [Example 5, Sodium 10-trifluoromethoxydecane-1-sulfonate], for which the Surface tension (0.5015 g/l (1.527E−03 mol/l) in deionised water) turned out to be 59.95 mN/m, the Surface tension (1.0000 g/l (3.046E−03 mol/l) in deionised water) is 52.55 mN/m and the Surface tension (2.0005 g/l (6.093E−03 mol/l) in deionised water) is recorded as 42.61 mN/m.
